Test system: androgen receptor (AR) in LNCaP and/or VCaP cells
Experiment: Androgen Receptor ELISA assay (AR degradation)
Assay type: cell-based
Details: LNCaP and/or VCaP cells; 5 hours incubation; media with R1881; read-out: DC50 Code* (degradation of AR ELISA)
Description: Androgen Receptor ELISA Assay. […] The protocols used with VCaP cells are described below.
The cells were grown for a minimum of 3 days.
(2)(i) A 10× stock plate in media was made; (ii) 2.5 μL of the 1000× stock was transferred to a new 10× stock plate (use 12 channel pipet, start at A (DMSO control) work thru H. When 247.5 µL of media was added to this plate, it served as a 10× stock; (iii) made media+1 nM R1881 for making 10× stock plate; (iv) added 247.5 μL of media with 1 nM R1881 to each well of the 10× stock plate, mix.
Then 22 μL of 10× stock was added to cells and incubated for 5 hours. […] Media was aspirated, and 100 μL 1× cell lysis buffer/well was added. The cells were placed on a shaker located in a cold room for 10 minutes and shaken at speed 7. The lysate mixture was mix and 20 μL transferred to 100 μl of Diluent in ELISA plate (0.15 μg/ml-[…]). The lysate-diluent mixture was store at 4° C. overnight on a shaker located in a cold room at speed 5 (gentle swirl).
The lysate-diluent mixture was shaken for 30 minutes at 37° C. The mouse AR antibody, anti-mouse antibody, TMB, and STOP solution were allowed to come to room temperature. The 1×ELISA buffer included in kit was made and loaded in reservoir. Media from the plate was discarded, the ELISA plate was tapped hard on paper towel, and washed 4×200 μl ELISA wash buffer using a plate washer for the first three washes and an eight channel aspirator for the fourth wash to more thoroughly aspirate the solution.
Next, 100 μL/well of mouse AR detection Ab was added; the plate was covered and shaken at 37° C. for 1 hour; media was discarded from the plates, the plates tapped on a paper towel and washed four times with 200 μL ELISA wash buffer with a plate washer for the first three washes and an eight channel aspirator for the fourth wash; 100 μL/well of anti-mouse—HRP conjugated Ab (comes with the kit) was added; the plates was cover and shaken at 37° C. for 30 minutes; the TMB reagent was allowed to come to room temperature; the media from the plate was discarded, the plates tapped on paper towel, and washed four times with 200 μL ELISA wash buffer with a plate washer for the first three washes and an eight channel aspirator for the fourth wash; plates were tapped on paper towel; 100 μL TMB was added to each well and the plate shaken for 2 minutes—while watching color. STOP solution (100 μL) was added when light blue color developed.
Data was analyzed and plotted using GraphPad Prism software. Exemplary compounds of Tables 1A, 1B, and 1C were assayed and the data shown below in Tables 2A, 2B, and 2C. DC50 (nM) categories (degradation of AR ELISA in LNCaP and/or VCaP cells) of Tables 2A, 2B, and 2C are as follows: A<1 nM; 1≤B<10 nM; 10≤C<100 nM; D≥100 nM. Dmax (%) categories (degradation of AR ELISA in LNCaP and/or VCaP cells) of Table 2 are as follows: A≥70; 50≤B<70; C<50

| DC50 [nM] | Compound |
| --- | --- |
| < 1 | COc1cc(O[C@H]2CC[C@H](NC(=O)c3cnc(N4CC5(CC(CN(C(C)C)[C@H]6C[C@H](Oc7ccc8c(c7)CN(C7CCC(=O)NC7=O)C8=O)C6)C5)C4)cn3)CC2)ccc1C#N (stereo partly shown) [Compound 27, N-((1r,4r)-4-(4-cyano-3-methoxyphenoxy)cyclohexyl)-5-(6-((((1r,3r)-3-((2-(2,6-dioxopiperidin-3-yl)-1-oxoisoindolin-5-yl)oxy)cyclobutyl) (isopropyl)amino)methyl)-2-azaspiro[3.3]heptan-2-yl)pyrazine-2-carboxamide] |
| > 100 | CC(C)N(CC1CCN(c2cnc(C(=O)N[C@H]3CC[C@H](Oc4ccc(C#N)c(Cl)c4)CC3)cn2)CC1)[C@H]1C[C@H](Oc2ccc3c(c2)C(=O)N([C@@H]2C(=O)NC(=O)C[C@H]2C)C3=O)C1 [Compound 75, N-((1r,4r)-4-(3-chloro-4-cyanophenoxy)cyclohexyl)-5-(4-((isopropyl((1S,3r)-3-((2-((3S,4R)-4-methyl-2,6-dioxopiperidin-3-yl)-1,3-dioxoisoindolin-5-yl)oxy)cyclobutyl)amino)methyl)piperidin-1-yl)pyrazine-2-carboxamide] |
| < 1 | CC(C)N(CC1CCN(c2cnc(C(=O)N[C@H]3CC[C@H](Oc4ccc(C#N)c(Cl)c4)CC3)cn2)CC1)[C@H]1C[C@H](Oc2cc(F)c3c(c2)C(=O)N(C2CCC(=O)NC2=O)C3=O)C1 (stereo partly shown) [Compound 42, N-((1r,4r)-4-(3-chloro-4-cyanophenoxy)cyclohexyl)-5-(4-((((1r,3r)-3-((2-(2,6-dioxopiperidin-3-yl)-7-fluoro-1,3-dioxoisoindolin-5-yl)oxy)cyclobutyl) (isopropyl)amino)methyl)piperidin-1-yl)pyrazine-2-carboxamide] |
| < 1 | CC(C)N(CC1CCN(c2ccc(C(=O)N[C@H]3CC[C@H](Oc4ccc(C#N)c(Cl)c4)CC3)nn2)CC1)[C@H]1CC[C@H](Oc2ccc3c(c2)C(=O)N(C2CCC(=O)NC2=O)C3=O)CC1 (stereo partly shown) [Compound 47, N-((1r,4r)-4-(3-chloro-4-cyanophenoxy)cyclohexyl)-6-(4-((((1r,4r)-4-((2-(2,6-dioxopiperidin-3-yl)-1,3-dioxoisoindolin-5-yl)oxy)cyclohexyl) (isopropyl)amino)methyl)piperidin-1-yl)pyridazine-3-carboxamide] |
| > 100 | CC(C)N(CC1CCN(c2cnc(C(=O)N[C@H]3CC[C@H](Oc4ccc(C#N)c(Cl)c4)CC3)cn2)CC1)[C@H]1C[C@H](Oc2ccc3c(c2)C(=O)N(C2CCC(=O)NC2=O)C32CC2)C1 (stereo partly shown) [Compound 73, N-((1r,4r)-4-(3-chloro-4-cyanophenoxy)cyclohexyl)-5-(4-((((1r,3r)-3-((2′-(2,6-dioxopiperidin-3-yl)-3′-oxospiro[cyclopropane-1,1′-isoindolin]-5′-yl)oxy)cyclobutyl) (isopropyl)amino)methyl)piperidin-1-yl)pyrazine-2-carboxamide] |

Same assay, conditions: degradation of AR ELISA in LNCaP and/or VCaP cells; Table 2C; read-out: DC50 Code*

| Compound | DC50 [nM] |
| --- | --- |
| CCOc1cc(O[C@H]2C(C)(C)[C@H](NC(=O)c3cnc(N4CC(CN(C(C)C)[C@H]5C[C@H](Oc6ccc7c(c6)C(=O)N(C6CCC(=O)NC6=O)C7=O)C5)C4)cn3)C2(C)C)ccc1C#N (stereo partly shown) [compound 134, N-((1r,3r)-3-(4-cyano-3-ethoxyphenoxy)-2,2,4,4-tetramethylcyclobutyl)-5-(3-((((1r,3r)-3-((2-(2,6-dioxopiperidin-3-yl)-1,3-dioxoisoindolin-5-yl)oxy)cyclobutyl) (isopropyl)amino)methyl)azetidin-1-yl)pyrazine-2-carboxamide] | 1 to 10 |
| COc1c(O[C@H]2C[C@H](N(CC3CCN(c4cnc(C(=O)N[C@H]5C(C)(C)[C@H](Oc6ccc(C#N)c(Cl)c6)C5(C)C)cn4)CC3)C(C)C)C2)ccc2c1CN(C1CCC(=O)NC1=O)C2=O (stereo partly shown) [Compound 227, N-((1r,3r)-3-(3-chloro-4-cyanophenoxy)-2,2,4,4-tetramethylcyclobutyl)-5-(4-((((1r,3r)-3-((2-(2,6-dioxopiperidin-3-yl)-4-methoxy-1-oxoisoindolin-5-yl)oxy)cyclobutyl)(isopropyl)amino)methyl)piperidin-1-yl)pyrazine-2-carboxamide] | < 1 |
| COc1cc2c(cc1O[C@H]1C[C@H](N(CC3CCN(c4cnc(C(=O)N[C@H]5C(C)(C)[C@H](Oc6cc(C)c(C#N)c(C)c6)C5(C)C)cn4)CC3)C(C)C)C1)C(=O)N(C1CCC(=O)NC1=O)C2=O (stereo partly shown) [Compound 199, N-((1r,3r)-3-(4-cyano-3,5-dimethylphenoxy)-2,2,4,4-tetramethylcyclobutyl)-5-(4-((((1r,3r)-3-((2-(2,6-dioxopiperidin-3-yl)-6-methoxy-1,3-dioxoisoindolin-5-yl)oxy)cyclobutyl)(isopropyl)amino)methyl)piperidin-1-yl)pyrazine-2-carboxamide] | < 1 |

More lines, now with the values ahead:

| DC50 [nM] | Compound |
| --- | --- |
| < 1 | Cc1cc(O[C@H]2C(C)(C)[C@H](NC(=O)c3ccc(N4CCC(CN5CCOC[C@H]5CCOc5ccc6c(c5)C(=O)N(C5CCC(=O)NC5=O)C6=O)CC4)cc3)C2(C)C)cc(C)c1C#N (stereo partly drawn) [compound 201, N-((1r,3R)-3-(4-cyano-3,5-dimethylphenoxy)-2,2,4,4-tetramethylcyclobutyl)-4-(4-(((3R)-3-(2-((2-(2,6-dioxopiperidin-3-yl)-1,3-dioxoisoindolin-5-yl)oxy)ethyl)morpholino)methyl)piperidin-1-yl)benzamide] |
| < 1 | Cc1cc(O[C@H]2C(C)(C)[C@H](NC(=O)c3cnc(N4CCC(CN(C(C)C)[C@H]5C[C@H](Oc6ccc7c(c6)C(=O)N(C6CCC(=O)NC6=O)C7=O)C5)CC4)nc3C)C2(C)C)cc(C)c1C#N (mixture of isomers) [compound 146, rac-N-((1r,3r)-3-(4-cyano-3,5-dimethylphenoxy)-2,2,4,4-tetramethylcyclobutyl)-2-(4-((((1r,3r)-3-((2-(2,6-dioxopiperidin-3-yl)-1,3-dioxoisoindolin-5-yl)oxy)cyclobutyl) (isopropyl)amino)methyl)piperidin-1-yl)-4-methylpyrimidine-5-carboxamide] |
| > 100 | CC1(C)[C@H](NC(=O)c2ccc(N3CCC(CN4CCN(c5ccc6c(c5)C(=O)N([C@]5(C#N)CCC(=O)NC5=O)C6)CC4)CC3)cc2)C(C)(C)[C@H]1Oc1ccc(C#N)c(Cl)c1 [compound 156, N-((1r,3r)-3-(3-chloro-4-cyanophenoxy)-2,2,4,4-tetramethylcyclobutyl)-4-(4-((4-(2-((S)-3-cyano-2,6-dioxopiperidin-3-yl)-3-oxoisoindolin-5-yl)piperazin-1-yl)methyl)piperidin-1-yl)benzamide] |
| < 1 | Cc1cc(O[C@H]2C(C)(C)[C@H](NC(=O)c3ccc(N4CCO[C@@H](CN5CCN(c6ccc7c(c6)C(=O)N(C6CCC(=O)NC6=O)C7=O)CC5)C4)cc3)C2(C)C)cc(C)c1C#N (stereo partly drawn) [compound 171, N-((1r,3S)-3-(4-cyano-3,5-dimethylphenoxy)-2,2,4,4-tetramethylcyclobutyl)-4-((2S)-2-((4-(2-(2,6-dioxopiperidin-3-yl)-1,3-dioxoisoindolin-5-yl)piperazin-1-yl)methyl)morpholino) benzamide] |

Same assay, conditions: degradation of AR ELISA in LNCaP and/or VCaP cells; read-out: DC50 Code*

| DC50 [nM] | Compound |
| --- | --- |
| 1 to 10 | COc1cc(O[C@H]2C(C)(C)[C@H](NC(=O)c3cnc(N4CCC(CN(CC[S+]([O-])CC5(C)COC5)[C@H]5C[C@H](Oc6ccc7c(c6)C(=O)N(C6CCC(=O)NC6=O)C7=O)C5)CC4)cn3)C2(C)C)ccc1C#N (mixture of isomers) [compound 243, rac-N-((1r,3r)-3-(4-cyano-3-methoxyphenoxy)-2,2,4,4-tetramethylcyclobutyl)-5-(4-((((1r,3r)-3-((2-(2,6-dioxopiperidin-3-yl)-1,3-dioxoisoindolin-5-yl)oxy)cyclobutyl)(2-(((3-methyloxetan-3-yl)methyl)sulfinyl)ethyl)amino)methyl)piperidin-1-yl)pyrazine-2-carboxamide] |

— patent US20260053932A1, “COMPOUNDS AND METHODS FOR THE TARGETED DEGRADATION OF ANDROGEN RECEPTOR AND ASSOCIATED METHODS OF USE” (Arvinas Operations, Inc., priority 2020, published 2026)
